Counter-ions that a name gives are not always drawn.
Assays:
[1] = Concentration of active ingredient before and after filtration through 0.22 μm filter; assay type: physicochemical
[2] = cited from earlier work
[3] = Batch 1, after filtration (0.22 μm filter)
[4] = Batch 1, before filtration (0.22 μm filter)
[5] = Batch 2, after filtration (0.22 μm filter)
[6] = Batch 2, before filtration (0.22 μm filter)

Compound | % of theoretical [1, 3] [%] | Concentration [1, 3] [%] | % of theoretical [1, 4] [%] | Concentration [1, 4] [%] | % of theoretical [1, 5] [%] | Concentration [1, 5] [%] | % of theoretical [1, 6] [%] | Concentration [1, 6] [%] | Solubility in water [2]
O=C(O)c1cn(C2CC2)c2cc(N3CCNCC3)c(F)cc2c1=O [Ciprofloxacin HCl] | 97.7 | 0.341 | 98.0 | 0.342 | 98.0 | 0.342 | 98.0 | 0.342 | –
CC1(C)O[C@@H]2C[C@H]3[C@@H]4C[C@H](F)C5=CC(=O)C=C[C@]5(C)[C@@]4(F)[C@@H](O)C[C@]3(C)[C@]2(C(=O)CO)O1 [Fluocinolone Acetonide] | 100.0 | 0.025 | 100.0 | 0.025 | 100.0 | 0.025 | 100.0 | 0.025 | virtually insoluble in water

Reference: patent publication US8932610B2, “Aqueous clear solutions of fluocinolone acetonide for treatment of otic inflammation” (Laboratorios Salvat, S.A., priority 2010, dated 2015)
